Assay results as given in publication PMC7465886, “4-(N-Alkyl- and -Acyl-amino)-1,2,4-triazole-3-thione Analogs as Metallo-β-Lactamase Inhibitors: Impact of 4-Linker on Potency and Spectrum of Inhibition” (Biomolecules, 2020).

What was measured:
[1] = target: T1, IMP-1 (Serratia marcescens, UniProt P52699); assay: MBL inhibition, reporter substrate method, IMP-1; assay type: biochemical; conditions: read-out: Inhibition of IMP-1 (dash in Ki column)
T1 construct: made in house; host or cells: E. coli BL21(DE3) derivative, pET-9a
Experimental: (§1) Compounds were prepared in DMSO at a final concentration of 50 mM prior to dilution in the assay buffer. The reaction rate was measured as the variation of absorbance observed upon substrate hydrolysis in a UV-Vis spectrophotometer or microplate reader at a wavelength of 300 nm (imipenem, meropenem), 260 nm (cefotaxime), or 482 nm (nitrocefin) and in the presence of a purified MBL enzyme (such as VIM-1, VIM-2, VIM-4, NDM-1, and IMP-1, at a final concentration ranging from 1 to 70 nM).
(§2) These enzymes were overproduced in derivatives of E. coli BL21(DE3) carrying a pET-9 a (IMP-1, VIM-1, VIM-2, and VIM-4) or pET-15 b (NDM-1) vector into which the metallo-β-lactamase-encoding open reading frame was cloned. Bacterial strains were grown in the auto-inducing medium, ZYP-5052, supplemented with 50 μg/mL kanamycin for 24 h at 37 °C [38]. IMP-1, VIM-1, VIM-2, and VIM-4 were purified by ion-exchange and gel filtration chromatography using an AKTA Purifier platform (GE Healthcare, Uppsala, Sweden) as previously described. NDM-1 (residues 37-270) was produced as an amino-terminal 6 xHis-tag fusion protein and was purified using affinity chromatography. After growth for 26 h at 25 °C, bacterial cells were harvested by centrifugation (10,000× g, 30 min, 4 °C), resuspended in 10 mM HEPES buffer (pH 7.5) containing 0.15 M NaCl (buffer A) in one-fifth of the original culture volume, and lysed by sonication. Cellular debris was removed by centrifugation (12,000× g, 40 min, 4 °C). The clarified sample was loaded on a HisTrap HP column (bed volume, 5 mL; GE Healthcare), followed by a wash step (25 mL) with buffer A containing 20 mM imidazole. Proteins were eluted using buffer A containing 350 mM imidazole. The resulting protein sample was desalted (HiPrep 26/10 Desalting column, GE Healthcare) using 20 mM triethanolamine (pH 7.2) supplemented with 50 μM ZnSO4 and concentrated using an Amicon Ultra-15 (MW cut-off, 10 kDa; Millipore, Burlington, MA, USA). The concentrated sample was loaded on a Superdex 75 prep grade column (XK16/100 column; bed volume, 140 mL; GE Healthcare) and the proteins eluted with buffer A containing 50 μM ZnSO4. The active fractions were pooled and stored at −20 °C. The purity of the protein preparations was estimated >95% by SDS-PAGE analysis. The authenticity of the enzyme preparations was confirmed by electron spray ionization mass spectrometry, as previously described.
(§3) The inhibition constants (Ki) were determined on the basis of a model of competitive inhibition by analyzing the dependence of the ratio v0/vi (v0, hydrolysis velocity in the absence of inhibitor; vi, hydrolysis velocity in the presence of inhibitor) as a function of [I] as already described. The slope of the plot of v0/vi vs. [I], which corresponds to Km^S/(Km^S + [S])Ki (where Km^S is the Km value of the reporter substrate and [S] its concentration in the reaction mixture) and allowed the calculation of the Ki value. Alternatively, a Dixon plot analysis was carried out by measuring the initial hydrolysis rates in the presence of variable concentrations of inhibitor and substrate. This allowed Ki values to be determined and supported the hypothesis that the various compounds behaved as competitive inhibitors of the various tested enzymes. The assays were performed in triplicate.

[2] = test system: E. coli LZ2310(pLBII-VIM-2); assay: microbe, parasite or virus in culture; assay type: cell-based, Escherichia coli
Experimental: The potential activity of selected compounds was assessed by the agar disk-diffusion method, according to the CLSI (Clinical Laboratory Standard Institute) recommendations, using Mueller–Hinton medium. The inhibitor (dissolved in DMSO) was added (maximum volume of 15 μL) to a commercially available disk containing a defined amount of a β-lactam antibiotic (30 μg of cefoxitin (Oxoid, Milan, Italy)). After incubation (18 h at 35 °C), the diameter of the growth inhibition zone was measured and compared to that obtained in the absence of inhibitor. DMSO and EDTA (220 μg) were used as negative and positive controls, respectively. Experiments were performed in triplicate.
These tests were performed on an isogenic laboratory strain obtained after transforming Escherichia coli LZ2310 strain with a derivative of the high copy number plasmid pLB-II carrying the cloned blaVIM-2 gene harboring a cloned gene encoding the functional metallo-β-lactamase. Strain LZ2310 is a triple knockout mutant derived from K12 in which the genes encoding for components of the three major efflux pump systems were inactivated (genotype, ∆norE ∆mdfA N43 acrA1) and was used to generate an hyperpermeable background for MBL production and investigate the potential contribution of such mechanisms to inhibitor efflux.

[3] = target: NDM-1 (Klebsiella pneumoniae, UniProt C7C422); assay: MBL inhibition, reporter substrate method, NDM-1; assay type: biochemical
Experimental: as §1, §2, §3

[4] = target: T2, L1 (Stenotrophomonas maltophilia, UniProt P52700); assay: MBL inhibition, L1 (nitrocefin hydrolysis); assay type: biochemical; conditions: 100 μM inhibitor; read-out: Inhibition of L1 (dash)
T2 construct: made in house
Experimental: Compounds were prepared as 10 mM solutions in DMSO before dilution with appropriate buffers. Buffers were 25 mM Hepes pH 7.5 for CphA or 25 mM Hepes pH 7.5, 50 µM ZnCl2 for L1. The rates in the absence of inhibitor were not modified by addition of 1% DMSO. CphA and L1 enzymes, purified as previously described, were used at concentrations between 0.2 and 0.8 nM, respectively. The enzyme and the inhibitor (100 µM) were pre-incubated for 30 min in a volume of 495 µL at room temperature. The hydrolysis of a solution of 100 µM imipenem for CphA was monitored by following the absorbance variation at 300 nm using a Specord 50 PLUS spectrophotometer (Analytik Jena, Jena, Germany). For L1, the reporter substrate was nitrocefin (100 µM). The enzyme activity was measured by following the absorbance variation at 482 nm. The substrate hydrolysis was done at 30 °C. The activity was tested by measuring the initial rates in three samples without inhibitor that allowed to determine the percentage of residual β-lactamase activity in the presence of inhibitors. If the residual activity in the presence of 100 µM inhibitor was <30%, the initial rate conditions were used to study the inhibition in the presence of increasing concentrations of compounds (from 1 to 100 µM) and to determine the competitive inhibition constant Ki. The Hanes linearization of the Henri–Michaelis equation was used, and Ki was calculated on the basis of the following equation, v = (Vmax.S)/[S + Km(1 + I/Ki)]. The assays were performed in triplicates.

[5] = target: T3, VIM-4 (Pseudomonas aeruginosa, UniProt A0A0F7KYQ8, S205R); assay: MBL inhibition, reporter substrate method, VIM-4; assay type: biochemical; conditions: read-out: Inhibition of VIM-4 (dash)
T3 construct: made in house; host or cells: E. coli BL21(DE3) derivative, pET-9a
Experimental: as §1, §2, §3

[6] = Escherichia coli, read-out: Inhibition Zone Diameter

Chain of NDM-1 (C7C422 37-270 limits assumed): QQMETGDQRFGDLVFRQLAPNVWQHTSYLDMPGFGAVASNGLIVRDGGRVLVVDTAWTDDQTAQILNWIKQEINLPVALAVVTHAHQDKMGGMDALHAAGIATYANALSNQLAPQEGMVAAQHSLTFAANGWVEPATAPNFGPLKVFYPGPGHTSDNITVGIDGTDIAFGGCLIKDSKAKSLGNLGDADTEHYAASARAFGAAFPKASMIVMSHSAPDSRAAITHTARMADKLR
T2 sequence (P52700 34-290): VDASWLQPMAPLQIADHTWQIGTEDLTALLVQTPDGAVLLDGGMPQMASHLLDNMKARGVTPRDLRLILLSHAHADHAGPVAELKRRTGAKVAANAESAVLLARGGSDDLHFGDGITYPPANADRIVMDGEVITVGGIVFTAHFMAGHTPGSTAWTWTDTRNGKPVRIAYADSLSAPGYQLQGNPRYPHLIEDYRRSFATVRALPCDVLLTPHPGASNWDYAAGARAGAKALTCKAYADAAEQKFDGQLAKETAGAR
T1 sequence (P52699 19-246 limits assumed): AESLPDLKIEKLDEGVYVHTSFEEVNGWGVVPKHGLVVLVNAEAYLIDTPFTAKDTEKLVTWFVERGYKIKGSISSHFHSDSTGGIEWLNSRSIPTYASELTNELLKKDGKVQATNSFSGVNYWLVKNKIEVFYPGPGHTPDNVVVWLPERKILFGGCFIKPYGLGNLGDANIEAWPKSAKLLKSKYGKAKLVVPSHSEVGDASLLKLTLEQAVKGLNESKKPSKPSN

For O=C(O)c1ccccc1CNn1c(-c2ccccc2)n[nH]c1=S [Compound 1], the inhibition at 100 µM [1] was under 40%, the “Restoration of cefoxitin activity (in words)” value ([2]; 30 μg cefoxitin disk, compound 1 at 48 μg, EUCAST clinical breakpoints) was “able to restore cefoxitin susceptibility” and the zone of inhibition at 16 µg/disc [2, 6] was 13 mm. The zone of inhibition at 32 µg/disc [2, 6] was 16 mm, the zone of inhibition at 48 µg/disc [2, 6] was 20 mm and the “Inhibition of NDM-1 (in words)” value [3] was “inactive”. For the same compound, the inhibition at 100 µM ([3]; read-out: Inhibition of NDM-1 (dash in Ki column)) was under 40%, the inhibition at 100 µM [4] was under 30% and the inhibition at 100 µM [5] was under 30%.
